PubChem BioAssay (NCI)
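Five compound concentrations were applied to cells in 96-well plates for 48 hours; endpoints were derived by simple linear interpolation of the resulting dose-response curve. Here, GI50 denotes the concentration required for 50% inhibition of growth. The concentration for full growth arrest is given as TGI.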

How the values were obtained:
Test in all cases: NCI tumour cell line growth inhibition, 48 h
DMS 114 small cell lung = test system: DMS 114 small cell lung
KM20L2 colon = test system: KM20L2 colon
P388 leukemia = test system: P388 leukemia
P388/ADR leukemia = test system: P388/ADR leukemia
SN12K1 renal = test system: SN12K1 renal
SR leukemia = test system: SR leukemia
T-47D breast = test system: T-47D breast
LXFL 529 NSCLC = test system: LXFL 529 NSCLC

With `Cc1ccc(C#CS(=O)(=O)C(F)(F)F)cc1` the TGI (DMS 114 small cell lung) was over 100 µM, the TGI (KM20L2 colon) was over 100 µM and the TGI (P388 leukemia) was over 100 µM. For the same compound, the TGI (P388/ADR leukemia) was over 100 µM and the TGI (SN12K1 renal) was over 100 µM.
`NCCS(=O)(=O)O` gave a TGI (SR leukemia) of over 100 µM and a TGI (T-47D breast) of over 100 µM.
`CC(=O)c1[nH]c(Nc2ccc(C)cc2)c(C(=S)Nc2ccccc2)c1N` gave a TGI (SR leukemia) of over 100 µM and a TGI (T-47D breast) of 37.2 µM.
Work on `O=Cc1c(Br)[nH]c2ccccc12` yielded a TGI (KM20L2 colon) of over 100 µM, a TGI (P388 leukemia) of over 100 µM and a TGI (P388/ADR leukemia) of over 100 µM. For the same compound, the TGI (SN12K1 renal) was over 100 µM.
Work on `O=C(c1ccccc1O)c1cc(-c2ncc3c(=O)c4ccccc4oc3n2)c(-c2ccccc2O)[nH]c1=O` yielded a TGI (DMS 114 small cell lung) of 80.4 µM, a TGI (P388 leukemia) of 47.8 µM and a TGI (P388/ADR leukemia) of 61 µM. The TGI (SN12K1 renal) was 35.1 µM.
For `N#Cc1ccc(C2Oc3ccc(Cl)cc3C=C2[N+](=O)[O-])cc1` (centres undefined), the TGI (SR leukemia) was 1.61 µM.
`O=C(Nc1ccc(Sc2ccc(N=Nc3c(O)c(S(=O)(=O)O)cc4cc(S(=O)(=O)O)ccc34)cc2)cc1)c1ccc(N=Nc2c(O)c(S(=O)(=O)O)cc3cc(S(=O)(=O)O)ccc23)cc1` was tested, and the TGI (DMS 114 small cell lung) was 42.9 µM, the TGI (KM20L2 colon) was over 100 µM and the TGI (LXFL 529 NSCLC) was over 100 µM. The TGI (SR leukemia) was 54 µM.
`C[N+]1([O-])[C@H]2CC(OC(=O)[C@H](CO)c3ccccc3)C[C@H]1[C@H]1O[C@H]12` (some centres undefined) was tested, and the TGI (SR leukemia) was over 100 µM and the TGI (T-47D breast) was over 100 µM.
In the case of `COc1ccc([C@H]2c3cc4c(cc3OC(O)(CO)[C@H]2C(=O)O)OCO4)c(OC)c1` (some centres undefined) (tested in a mixture with another compound), the TGI (DMS 114 small cell lung) is reported as over 100 µM, the TGI (KM20L2 colon) is reported as over 100 µM and the TGI (LXFL 529 NSCLC) is reported as over 100 µM. The TGI (SR leukemia) was over 100 µM.
For `CCOC(=O)C1=C(c2ccccc2)C12N(Cc1ccccc1)C(=O)C2(c1ccccc1)c1ccccc1` (centres undefined), the TGI (SR leukemia) was over 100 µM and the TGI (T-47D breast) was over 100 µM.
`O=NN1C(c2ccccc2)CCCC1c1ccccc1` (centres undefined) was tested, and the TGI (DMS 114 small cell lung) was over 100 µM, the TGI (KM20L2 colon) was over 100 µM and the TGI (P388 leukemia) was 81.8 µM. It also gave a TGI (P388/ADR leukemia) of over 100 µM and a TGI (SN12K1 renal) of over 100 µM.
`COc1cc(/C(=C2/O[C@@H]([C@H]3COC(C)(C)O3)[C@H]3OC(C)(C)O[C@@H]23)c2ccc3c(c2)OCO3)cc(OC)c1OC` gave a GI50 (SR leukemia) of over 25 µM, a TGI (SR leukemia) of over 25 µM and a GI50 (T-47D breast) of 14.5 µM. The TGI (T-47D breast) was over 25 µM.
Compound `O=C1c2cc3c(cc2CC1Cc1ccc2c(c1)CCC2)CCC3` (centres undefined) has a TGI (SR leukemia) of 95.1 µM and a TGI (T-47D breast) of 63.1 µM.
For `O=C(c1ccccc1)c1c(C(F)(F)F)n([O-])c2cc(F)c(F)cc2[n+]1=O`, the TGI (T-47D breast) was over 36.7 µM.
Compound `O=C(CSCC(=O)N/N=C\c1ccccc1F)N/N=C\c1ccccc1F` has a TGI (T-47D breast) of over 100 µM.
`CCCCOc1ccc2c(c1)CC[C@@H]1[C@@H]2CC[C@]2(C)C(=O)N(CCCC)C(=O)C[C@@H]12` was tested, and the TGI (SR leukemia) was over 100 µM and the TGI (T-47D breast) was over 100 µM.
In the case of `COc1cc(-c2nc3cc(Cl)c(Cl)cc3[nH]2)ccc1OCC(=O)N=Nc1c(O)[nH]c2ccc(Cl)cc12`, the GI50 (SR leukemia) is reported as 0.252 µM, the TGI (SR leukemia) is reported as 1.39 µM and the GI50 (T-47D breast) is reported as 0.381 µM. It also gave a TGI (T-47D breast) of 2.37 µM.
